# Strand notation (5' to 3'): a small letter for the sugar, then the base; units joined by * are phosphorothioate-linked, units joined directly phosphodiester-linked; [ ] holds rarer units or linkages, { } end groups; capitals alone tell only the bases. d = 2'-deoxy (DNA)
# Assays:
# CL97 cells = assay: Apoptosis assay (annexin V and PI, flow cytometry); format: cell-based, human; conditions: 100 nM, 48 h
# Procedure: (§1) H1975 or CL97 was seeded onto 10-cm dish and cultured overnight. Then, cells were separately treated with 100 nM DzControl or DzT790M-1 with lipofectamine 2000 (Invitrogen). After 48 h, cells were collected, double stained by annexin V and PI, and analyzed by flow cytometry following the protocol of Dead cell apoptosis kit from manufacturer (Invitrogen).
# H1975 cells = assay: Apoptosis assay (annexin V and PI, flow cytometry); format: cell-based, human; conditions: 100 nM, 48 h
# Procedure: as §1
# wild-type EGFR = assay: Western immunoblotting of EGFR expression and downstream signaling in wild-type EGFR cell lines; format: cell-based, human; conditions: A549 and CL1-5 cells, 100 nM
# Procedure: A549, CL1-5, H1975, or CL97 was seeded onto 6-well at 3×10^5 cells/well and cultured overnight. Then, cells were separately treated with 100 nM DzControl or DzT790M-1 with lipofectamine 2000 (Invitrogen). The transfected A549 and CL1-5 cells were serum-starved for 24 h and treated with 100 ng/ml of EGF at 37° C. for 15 min. 72 h after transfection, cell were collected for analysis. Cells were washed twice by ice-cold PBS and then total protein was extracted by RIPA buffer with protease inhibitor (Roche). 50 μg of total protein from the supernatants were boiled for 5 min at 95° C. The samples were resolved on 10% SDS-PAGE gel and transferred onto nitrocellulose membranes. EGFR expression and downstream signaling were detected by using primary antibodies specific to human pEGFR(Y1068) (Cell signaling), tEGFR (Santa Cruz), pSTAT3 (Y705) (Cell signaling), tSTAT3 (Cell signaling), pAKT (5473)(Cell signaling), tAKT (Santa Cruz), pERK (T202/Y204) (Cell signaling), tERK (Santa Cruz), and cleaved PARP (Cell signaling) at 1:1000 dilution and β-actin (Santa Cruz) at 1:10000 dilution, respectively. Secondary antibodies against rabbit IgG or mouse IgG was used at 1:5000 dilution. Protein bands on membrane were visualized by exposure to the chemiluminescence substrate.
# EGFR belongs to receptor tyrosine kinases. The binding of its extracellular ligands triggers receptor dimerization, tyrosine residues phosphorylation, and downstream signaling activation including signal transducer and activator of transcription 3 (STAT3), Akt, extracellular signal regulated kinases (ERK), and others. To examine the effects of DzT790M on protein expression level of EGFR and its downstream signaling, western immunoblotting was performed on DzT790M transfected cells. A549, CL1-5, H1975, or CL97 was seeded onto 6-well at 3×10^5 cells/well and cultured overnight. Then, cells were separately treated with 100 nM DzControl or DzT790M-1 with lipofectamine 2000 (Invitrogen). The transfected A549 and CL1-5 cells were serum-starved for 24 h and treated with 100 ng/ml of EGF at 37° C. for 15 min. 72 h after transfection, cell were collected for analysis. Cells were washed twice by ice-cold PBS and then total protein was extracted by RIPA buffer with protease inhibitor (Roche). […] Also, activation of downstream STAT3, AKT, and ERK signaling after EGF treatment were not inhibited by DzT790M-1 or DzT790M-2 transfection.
# CL1-5 (EGFR wild-type) or H1975 (EGFR T790M) were seeded onto 6-well at 3×10^5 cells/well and cultured overnight. […] The transfected CL1-5 cells were serum-starved for 24 h and treated with 100 ng/ml of EGF at 37° C. for 15 min. 72 h after transfection, cells were collected for western blotting analysis following the above mentioned procedure. […]
# [1] = system: T790M-harboring cancer cells; assay: Anti-proliferation comparison of T790M DNAzymes; format: cell-based
substance,measurement,setting,value
"DzT790M-1: 10-23 DNAzyme against EGFR T790M mRNA, arms 10/4, phosphorothioate ends: AGCTGCATGAGGCTAGCTACAACGAGAGC (DNA dA*dGdCdTdGdCdAdTdGdAdGdGdCdTdAdGdCdTdAdCdAdAdCdGdAdGdAdG*dC; further chemistry not fully specified)",percentage of apoptotic cells in whole cell population,CL97 cells,27.4%
same,percentage of dead cells in whole cell population,CL97 cells,25.1%
same,apoptotic cells,H1975 cells,18.6%
same,dead cells (annexin V and PI double positive),H1975 cells,32.6%
same,"activation of downstream STAT3, AKT, and ERK signaling after EGF treatment",wild-type EGFR; 100 ng/ml EGF 15 min,not inhibited
same,protein level of EGFR compared to DzControl group,wild-type EGFR; 72 h after transfection,did not decreased
same,"anti-proliferation effect on T790M-harboring cancer cells, ranking among SEQ ID NOs:1-7",[1],most effective

# From patent US9856480B2, “Dnazyme for silencing the expression of EGFR” (DCB-USA LLC, priority 2013, dated 2018)
